Columns and labels:
[1] = biological target: T1, Neuronal acetylcholine receptor subunit alpha-7 (Homo sapiens, UniProt P36544); assay: Non competitive antagonist activity at human alpha7 nAChR expressed in Xenopus oocyte assessed as inhibition of ACh-induced current by voltage clamp method; type: functional
[2] = biological target: T1, Neuronal acetylcholine receptor subunit alpha-7; assay: Competitive antagonist activity at human alpha7 nAChR expressed in Xenopus oocyte assessed as inhibition of ACh-induced current by voltage clamp method; type: functional
[3] = biological target: T1, Neuronal acetylcholine receptor subunit alpha-7; assay: Antagonist activity at human alpha7 nAChR expressed in Xenopus oocyte assessed as inhibition of ACh-induced current by voltage clamp method; type: functional
[4] = biological target: T1, Neuronal acetylcholine receptor subunit alpha-7; assay: Binding affinity to human alpha7 nAChR
[5] = biological target: T1, Neuronal acetylcholine receptor subunit alpha-7; assay: Partial agonist activity at human alpha7 nAChR expressed in Xenopus oocyte […] current by voltage clamp method; type: functional

T1 sequence (P36544 whole entry): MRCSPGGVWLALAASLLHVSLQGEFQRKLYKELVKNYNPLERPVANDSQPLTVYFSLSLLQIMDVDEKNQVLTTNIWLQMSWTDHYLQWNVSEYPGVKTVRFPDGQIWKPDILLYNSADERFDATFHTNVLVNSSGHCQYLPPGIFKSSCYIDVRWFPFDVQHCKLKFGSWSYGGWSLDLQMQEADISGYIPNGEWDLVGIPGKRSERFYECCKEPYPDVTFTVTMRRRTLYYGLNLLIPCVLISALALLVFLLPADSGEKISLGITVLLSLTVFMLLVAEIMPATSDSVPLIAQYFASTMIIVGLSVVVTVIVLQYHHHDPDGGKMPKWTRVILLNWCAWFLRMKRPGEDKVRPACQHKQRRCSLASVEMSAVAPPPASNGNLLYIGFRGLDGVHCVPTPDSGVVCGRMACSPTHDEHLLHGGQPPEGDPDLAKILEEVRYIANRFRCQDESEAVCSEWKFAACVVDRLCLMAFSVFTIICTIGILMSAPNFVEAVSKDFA

For `C[C@H]1CN2CCCC[C@@H]2CN1C(=O)c1ccc2c(c1)OCCO2`, the IC50 [1] was 6.1 µM.
`O=C(Oc1ccc(Br)cc1)N1CCCN2CCC[C@H]2C1` gave an IC50 [2] of 5.6 µM.
In the case of `CC(C)N1CCCCN(C(=O)c2ccc(Cl)cc2)CC1`, the IC50 [3] is reported as 7 µM.
Compound `O=C(Oc1ccc(Br)cc1)N1CCN2CCC1CC2` [SSR180711] has a Ki [4] of 0.014 µM and an EC50 [5] of 4.4 µM.
`O=C(NCC12CCCN1CCC2)c1ccc(Cl)cc1` showed an IC50 [3] of 7.2 µM.

From ChEMBL document CHEMBL1687692, “Exploring α7-Nicotinic Receptor Ligand Diversity by Scaffold Enumeration from the Chemical Universe Database GDB” (ACS Med Chem Lett, 2010)
